# Experimental data taken from ChEMBL document CHEMBL6092167, “Phosphorylation as an Effective Tool to Improve Stability and Reduce Toxicity of Antimicrobial Peptides” (J Med Chem, 2024).
# Activity calls are given as the source filed them. The rule behind the calls is not given here. Non-standard residues stand in square brackets, D forms with d. Residues, ends and D or L forms follow the SMILES beside them. Bip = N[C@@H](Cc1ccc(-c2ccccc2)cc1)C(=O)O
# How the values were obtained:
# [1] = tested on: Bacillus subtilis; assay: Antibacterial activity against Bacillus subtilis ATCC 23857 incubated for 18 to 24 hrs by broth microdilution method; assay type: functional; settings: time 18-24 hrs
# [2] = tested on: Cell membrane; assay: Induction of cell membrane disruption in Staphylococcus aureus ATCC 25923 at 2 times MIC incubated for 2 hrs by SEM analysis; assay type: subcellular
# [3] = tested on: Klebsiella pneumoniae; assay: Durg resistance development in Klebsiella pneumoniae ATCC 700603 measured after 20 passage; assay type: functional, organism-based
# [4] = tested on: Cell membrane; assay: Induction of cell membrane disruption in Pseudomonas aeruginosa ATCC 27853 at 2 times MIC incubated for 2 hrs by SEM analysis; assay type: subcellular
# [5] = Toxicity in ip dosed BALB/c mouse measured after 14 days; assay type: organism-based; settings: in vivo, time 14 day
# [6] = tested on: Staphylococcus aureus; assay: Antibacterial activity against Staphylococcus aureus 794 incubated for 18 to 24 hrs by broth microdilution method; assay type: functional; settings: time 18-24 hrs
# [7] = tested on: Klebsiella pneumoniae; assay: Additive antibacterial activity against Klebsiella pneumoniae ATCC 700603 assessed as fractional inhibitory concentration index at 1/4 to 4 times MIC incubated for 18 to 24 hrs in presence of rifampicin by checkerboard assay; assay type: functional; settings: time 18-24 hrs
# [8] = tested on: Escherichia coli; assay: Antibacterial activity against Escherichia coli 25922 assessed as interaction with LPS by measuring bacterial mortality at 2 times MIC preincubated with LPS for 1 hr followed by bacterial addition and measured after overnight by microplate reader assay; assay type: functional, organism-based
# [9] = tested on: Pseudomonas aeruginosa; assay: Antibacterial activity against Pseudomonas aeruginosa 119 incubated for 18 to 24 hrs by broth microdilution method; assay type: functional; settings: time 18-24 hrs
# [10] = tested on: Cell membrane; assay: Induction of membrane damage in Pseudomonas aeruginosa ATCC 27853 assessed as change in membrane shape at 2 times MIC incubated for 30 to 120 mins by SEM analysis; assay type: subcellular; settings: time 30-120 min
# [11] = tested on: Cell membrane; assay: Induction of cytoplasmic membrane rupture in Pseudomonas aeruginosa ATCC 27853 assessed as blistering at 2 times MIC incubated for 30 to 120 mins by SEM analysis; assay type: subcellular; settings: time 30-120 min
# [12] = tested on: Staphylococcus aureus; assay: Antibiofilm activity against Staphylococcus aureus ATCC 25923 assessed as eradication of preformed biofilms incubated for 24 hrs by crystal violet staining based assay; assay type: functional, organism-based
# [13] = tested on: Cell membrane; assay: Induction of cytoplasmic membrane rupture in Pseudomonas aeruginosa ATCC 27853 assessed as wrinkling at 2 times MIC incubated for 30 to 120 mins by SEM analysis; assay type: subcellular; settings: time 30-120 min
# [14] = tested on: Cell membrane; assay: Induction of cytoplasmic membrane rupture in Staphylococcus aureus ATCC 25923 assessed as content leakage at 2 times MIC incubated for 30 to 120 mins by SEM analysis; assay type: subcellular; settings: time 30-120 min
# [15] = tested on: Escherichia coli; assay: Antibacterial activity against Escherichia coli 850 incubated for 18 to 24 hrs by broth microdilution method; assay type: functional; settings: time 18-24 hrs
# [16] = Stability in Kunming mouse serum assessed as half life measured upto 24 hrs by RP-HPLC method; assay type: ADME, cell-free
# [17] = tested on: Klebsiella pneumoniae; assay: Inhibition of kanamycin resistance in Klebsiella pneumoniae ATCC 700603 at 1:1 compound: kanamycin molar ratio measured after 20 generation; assay type: functional, organism-based
# [18] = tested on: Pseudomonas aeruginosa; assay: Antibacterial activity against Pseudomonas aeruginosa ATCC 27853 incubated for 18 to 24 hrs by broth microdilution method; assay type: functional; settings: time 18-24 hrs
# [19] = tested on: Staphylococcus aureus; assay: Antibacterial activity against methicillin resistant Staphylococcus aureus ATCC 33591 incubated for 18 to 24 hrs by broth microdilution method; assay type: functional; settings: time 18-24 hrs
# [20] = tested on: Klebsiella pneumoniae; assay: Inhibition of biofilm formation in Klebsiella pneumoniae ATCC 700603 incubated for 24 hrs by crystal violet staining based assay; assay type: functional, organism-based
# [21] = tested on: Klebsiella pneumoniae; assay: Antibacterial activity against rifampicin resistant Klebsiella pneumoniae; assay type: functional
# [22] = tested on: Cell membrane; assay: Induction of cytoplasmic membrane rupture in Staphylococcus aureus ATCC 25923 assessed as shrinkage at 2 times MIC incubated for 30 to 120 mins by SEM analysis; assay type: subcellular; settings: time 30-120 min
# [23] = tested on: Cell membrane; assay: Induction of cytoplasmic membrane rupture in Pseudomonas aeruginosa ATCC 27853 assessed as leakage of cellular content at 2 times MIC incubated for 30 to 120 mins by SEM analysis; assay type: subcellular; settings: time 30-120 min
# [24] = tested on: Klebsiella pneumoniae; assay: Additive antibacterial activity against Klebsiella pneumoniae ATCC 700603 assessed as fractional inhibitory concentration index at 1/4 to 4 times MIC incubated for 18 to 24 hrs in presence of ciprofloxacin by checkerboard assay; assay type: functional; settings: time 18-24 hrs
# [25] = tested on: Klebsiella pneumoniae; assay: Antibiofilm activity against Klebsiella pneumoniae ATCC 700603 assessed as eradication of preformed biofilms at 2 to 4 times MIC incubated for 24 hrs by crystal violet staining based assay; assay type: functional, organism-based
# [26] = tested on: Cell membrane; assay: Induction of cytoplasmic membrane rupture in Pseudomonas aeruginosa ATCC 27853 assessed as adhesion at 2 times MIC incubated for 30 to 120 mins by SEM analysis; assay type: subcellular; settings: time 30-120 min
# [27] = tested on: Cell membrane; assay: Induction of outer membrane permeabilization in Escherichia coli ATCC 25922 assessed as increase in fluorescence intensity incubated for 1 min by NPN dye based microplate reader assay; assay type: subcellular
# [28] = tested on: Klebsiella pneumoniae; assay: Inhibition of rifampicin resistance in Klebsiella pneumoniae ATCC 700603 at 1:1 compound: rifampicin molar ratio measured after 20 generation; assay type: functional, organism-based
# [29] = tested on: Klebsiella pneumoniae; assay: Antibacterial activity against kanamycin resistant Klebsiella pneumoniae; assay type: functional
# [30] = tested on: Escherichia coli; assay: Antibiofilm activity against Escherichia coli ATCC 25922 assessed as eradication of preformed biofilms incubated for 24 hrs by crystal violet staining based assay; assay type: functional, organism-based
# [31] = tested on: Cell membrane; assay: Induction of inner membrane permeabilization in Escherichia coli ML-35 assessed as increase in […] intensity measured every 5 mins for 135 mins by ONPG dye based microplate reader assay; assay type: subcellular
# [32] = tested on: Acinetobacter baumannii; assay: Antibacterial activity against Acinetobacter baumannii ATCC 19606 incubated for 18 to 24 hrs by broth microdilution method; assay type: functional; settings: time 18-24 hrs
# [33] = Cytotoxicity against HEK293T cells incubated for 1 hr by fluorescence based microplate reader assay; assay type: toxicity, cell-based, HEK-293T; settings: human
# [34] = tested on: Escherichia coli; assay: Inhibition of biofilm formation in Escherichia coli ATCC 25922 incubated for 24 hrs by crystal violet staining based assay; assay type: functional, organism-based
# [35] = tested on: Escherichia coli; assay: Antibacterial activity against Escherichia coli 780 incubated for 18 to 24 hrs by broth microdilution method; assay type: functional; settings: time 18-24 hrs
# [36] = tested on: Staphylococcus aureus; assay: Antibacterial activity against methicillin resistant Staphylococcus aureus 48 incubated for 18 to 24 hrs by broth microdilution method; assay type: functional; settings: time 18-24 hrs
# [37] = tested on: Staphylococcus aureus; assay: Antibiofilm activity against Staphylococcus aureus ATCC 25923 assessed as eradication of preformed biofilms at 2 to 4 times MIC incubated for 24 hrs by crystal violet staining based assay; assay type: functional, organism-based
# [38] = tested on: Klebsiella pneumoniae; assay: Antibiofilm activity against Klebsiella pneumoniae ATCC 700603 assessed as eradication of preformed biofilms incubated for 24 hrs by crystal violet staining based assay; assay type: functional, organism-based
# [39] = Hemolytic activity in mouse erythrocyte incubated for 1 hr by microplate reader assay; assay type: toxicity, cell-based
# [40] = tested on: Escherichia coli; assay: Antibacterial activity against Escherichia coli ATCC 25922 incubated for 18 to 24 hrs by broth microdilution method; assay type: functional; settings: time 18-24 hrs
# [41] = tested on: Pseudomonas aeruginosa; assay: Antibiofilm activity against Pseudomonas aeruginosa ATCC 27853 assessed as eradication of preformed biofilms incubated for 24 hrs by crystal violet staining based assay; assay type: functional, organism-based
# [42] = tested on: Klebsiella pneumoniae; assay: Additive antibacterial activity against Klebsiella pneumoniae ATCC 700603 assessed as fractional inhibitory concentration index at 1/4 to 4 times MIC incubated for 18 to 24 hrs in presence of kanamycin by checkerboard assay; assay type: functional; settings: time 18-24 hrs
# [43] = tested on: Staphylococcus aureus; assay: Inhibition of biofilm formation in Staphylococcus aureus ATCC 25923 at 1 time MIC incubated for 24 hrs by crystal violet staining based assay; assay type: functional, organism-based
structure (smiles),measurement,setting,value
CC(C)C[C@H](NC(=O)[C@H](CC(C)C)NC(=O)[C@H](Cc1ccc(O)cc1)NC(=O)[C@H](CCCCN)NC(=O)[C@H](CC(C)C)NC(=O)[C@H](CCCNC(=N)N)NC(=O)[C@H](CCCCN)NC(=O)[C@H](Cc1ccc(-c2ccccc2)cc1)NC(=O)[C@H](CC(C)C)NC(=O)CN)C(N)=O (H-GL[Bip]KRLKYLL-NH2),MIC,[1],4 µM
same,Activity,[2],Active; More Potent Than Polymyxin B And Vancomycin
same,Activity,[3],inactive
same,Activity,[4],Active; More Potent Than Polymyxin B And Vancomycin
same,LD50 at 336 h,[5],66.7 mg/kg
same,MIC,[6],8 µM
same,fractional inhibitory concentration index (FICI),[7],0.563
same,Activity,[8],Active; Activity Comparable To Polymyxin B
same,MIC,[9],8 µM
same,Activity,[10],Active
same,Activity,[11],Active
same,Activity,[12],Dose-dependent-effect; Superior Activity Compared To Polymyxin B And Vancomycin
same,Activity,[13],Active
same,Activity,[14],Active
same,MIC,[15],8 µM
same,half-life,[16],1.36 h
same,inhibition,[17],Active
same,MIC,[18],8 µM
same,MIC,[19],8 µM
same,inhibition,[20],Dose-dependent-effect; Inhibition Comparable To Polymyxin B
same,MIC,[21],8 µM
same,Activity,[22],Active
same,Activity,[23],Active
same,fractional inhibitory concentration index (FICI),[24],0.75
same,Activity,[25],Active
same,Activity,[26],Active
same,Activity,[27],Dose-dependent-effect
same,inhibition,[28],Active
same,MIC,[29],8 µM
same,Activity,[30],Dose-dependent-effect; Superior Activity Compared To Polymyxin B And Vancomycin
same,Activity,[31],Dose-dependent-effect; More Potent Than 1% Triton X-100 And Polymyxin B
same,MIC,[32],8 µM
same,CC50 at 1 h,[33],50.9 µM
same,inhibition,[34],Dose-dependent-effect; Inhibition Comparable To Polymyxin B
same,MIC,[35],8 µM
same,MIC,[36],8 µM
same,Activity,[37],Active
same,Activity,[38],Dose-dependent-effect; Superior Activity Compared To Polymyxin B And Vancomycin
same,MHC,[39],27.38 µM
same,MIC,[40],8 µM
same,Activity,[41],Dose-dependent-effect; Superior Activity Compared To Polymyxin B And Vancomycin
same,fractional inhibitory concentration index (FICI),[42],0.563
same,inhibition,[43],Active
